In paper PMC5546936, “CLE42 binding induces PXL2 interaction with SERK2” (Protein & Cell, 2017):
Where a SMILES comes first, the peptide text is derived from it. Where no end group is shown, it is not given here. [ ]: non-standard residue; d: D form. Hyp = O=C(O)[C@@H]1C[C@@H](O)CN1

B1: CLE41/44 or TDIF (tracheary elements differentiation inhibitory factor) (peptide)
peptide: HEV[Hyp]SG[Hyp]NPISN
B2: CLE42 (peptide)
peptide: HGV[Hyp]SG[Hyp]NPISN

Key:
[1] = molecular target: T1, PXL2LRR (extracellular LRR domain protein of PXL2) (Arabidopsis thaliana, UniProt Q9M0G7); experiment: biochemical; format: binding
T1 construct: The LRR domain of PXL2 (residues 1-633, PXL2LRR) from Arabidopsis with an engineered; 6xHis (C); made in house; host or cells: High Five insect cells (baculovirus, pFastBac 1)
T1 sequence (Q9M0G7 24-633): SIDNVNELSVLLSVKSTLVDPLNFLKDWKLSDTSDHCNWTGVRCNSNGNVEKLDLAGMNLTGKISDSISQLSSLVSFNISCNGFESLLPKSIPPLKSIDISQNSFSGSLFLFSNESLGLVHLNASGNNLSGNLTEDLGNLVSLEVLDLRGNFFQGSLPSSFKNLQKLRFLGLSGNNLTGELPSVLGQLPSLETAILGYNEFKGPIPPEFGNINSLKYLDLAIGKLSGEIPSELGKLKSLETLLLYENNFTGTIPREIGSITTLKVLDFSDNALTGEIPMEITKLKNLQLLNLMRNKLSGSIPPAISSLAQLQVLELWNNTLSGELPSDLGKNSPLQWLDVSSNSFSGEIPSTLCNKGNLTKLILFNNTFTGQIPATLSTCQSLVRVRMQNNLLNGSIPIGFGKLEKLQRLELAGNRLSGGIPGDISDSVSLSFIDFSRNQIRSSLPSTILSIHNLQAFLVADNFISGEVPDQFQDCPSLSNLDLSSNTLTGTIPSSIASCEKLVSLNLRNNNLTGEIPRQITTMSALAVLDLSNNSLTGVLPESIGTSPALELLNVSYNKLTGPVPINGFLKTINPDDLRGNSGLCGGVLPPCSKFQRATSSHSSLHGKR
Protocol: (C) Measurement of the binding affinity between PXL2^LRR and CLE42 by ITC. Top panel: twenty injections of CLE42 solution were titrated into PXL2^LRR in the ITC cell. The area of each injection peak corresponds to the total heat released for that injection. Bottom panel: the binding isotherm for PXL2^LRR-CLE42 interaction. The integrated heat is plotted against the molar ratio between CLE42 and PXL2^LRR. […] The assay was performed as described in (C).

[2] = molecular target: extracellular LRR domain protein of PXL2 (PXL2^LRR) (Arabidopsis thaliana); experiment: ITC; twenty injections of peptide solution titrated into PXL2^LRR in the ITC cell

Molecule | Kd [1] [µM] | Kd [2] [µM] | other results
CC[C@H](C)[C@H](NC(=O)[C@@H]1CCCN1C(=O)[C@H](CC(N)=O)NC(=O)[C@@H]1C[C@@H](O)CN1C(=O)CNC(=O)[C@H](CO)NC(=O)[C@@H]1C[C@@H](O)CN1C(=O)[C@@H](NC(=O)CNC(=O)[C@@H](N)Cc1c[nH]cn1)C(C)C)C(=O)N[C@@H](CO)C(=O)N[C@@H](CC(N)=O)C(=O)O [CLE42, His-Gly-Val-Hyp-Ser-Gly-Hyp-Asn-Pro-Ile-Ser-Asn] (H-HGV[Hyp]SG[Hyp]NPISN-OH) | 2.75 | – | –
CC[C@H](C)[C@H](NC(=O)[C@@H]1CCCN1C(=O)[C@H](CC(N)=O)NC(=O)[C@@H]1C[C@@H](O)CN1C(=O)CNC(=O)[C@H](CO)NC(=O)[C@@H]1C[C@@H](O)CN1C(=O)[C@@H](NC(=O)[C@H](CCC(=O)O)NC(=O)[C@@H](N)Cc1c[nH]cn1)C(C)C)C(=O)N[C@@H](CO)C(=O)N[C@@H](CC(N)=O)C(=O)O [CLE41, His-Glu-Val-Hyp-Ser-Gly-Hyp-Asn-Pro-Ile-Ser-Asn] (H-HEV[Hyp]SG[Hyp]NPISN-OH) | 10 | – | –
RLV[Hyp]SG[Hyp]NPLHH [CLE13, negative control] | – | – | interaction with PXL2LRR by ITC ([1]; ITC200, 25 °C, 10 mM Bis-Tris pH 6.0, 100 mM NaCl, approximately 0.5 mM peptide, 0.05 mM PXL2LRR, repeated at least three times, negative control): no detectable interaction
B1 | – | 10 | –
B2 | – | 2.75 | –
